Results published in article PMC7614683, “A small molecule PI3Kα activator for cardioprotection and neuroregeneration” (Nature, 2023).

Assays:
PI3Kα E545K mutant = target: T1, PI3Kα E545K mutant (Homo sapiens, UniProt P42336, E545K); assay: ADP-Glo catalytic activity, oncogenic mutant E545K; format: biochemical
T1 construct: Full-length human p110α was expressed either in a complex with full-length human p85α (for HTS, biochemistry and HDX-MS); 6xHis tag followed by TEV protease site (N); host or cells: Sf9, baculovirus
T1 sequence (P42336 whole entry E545K): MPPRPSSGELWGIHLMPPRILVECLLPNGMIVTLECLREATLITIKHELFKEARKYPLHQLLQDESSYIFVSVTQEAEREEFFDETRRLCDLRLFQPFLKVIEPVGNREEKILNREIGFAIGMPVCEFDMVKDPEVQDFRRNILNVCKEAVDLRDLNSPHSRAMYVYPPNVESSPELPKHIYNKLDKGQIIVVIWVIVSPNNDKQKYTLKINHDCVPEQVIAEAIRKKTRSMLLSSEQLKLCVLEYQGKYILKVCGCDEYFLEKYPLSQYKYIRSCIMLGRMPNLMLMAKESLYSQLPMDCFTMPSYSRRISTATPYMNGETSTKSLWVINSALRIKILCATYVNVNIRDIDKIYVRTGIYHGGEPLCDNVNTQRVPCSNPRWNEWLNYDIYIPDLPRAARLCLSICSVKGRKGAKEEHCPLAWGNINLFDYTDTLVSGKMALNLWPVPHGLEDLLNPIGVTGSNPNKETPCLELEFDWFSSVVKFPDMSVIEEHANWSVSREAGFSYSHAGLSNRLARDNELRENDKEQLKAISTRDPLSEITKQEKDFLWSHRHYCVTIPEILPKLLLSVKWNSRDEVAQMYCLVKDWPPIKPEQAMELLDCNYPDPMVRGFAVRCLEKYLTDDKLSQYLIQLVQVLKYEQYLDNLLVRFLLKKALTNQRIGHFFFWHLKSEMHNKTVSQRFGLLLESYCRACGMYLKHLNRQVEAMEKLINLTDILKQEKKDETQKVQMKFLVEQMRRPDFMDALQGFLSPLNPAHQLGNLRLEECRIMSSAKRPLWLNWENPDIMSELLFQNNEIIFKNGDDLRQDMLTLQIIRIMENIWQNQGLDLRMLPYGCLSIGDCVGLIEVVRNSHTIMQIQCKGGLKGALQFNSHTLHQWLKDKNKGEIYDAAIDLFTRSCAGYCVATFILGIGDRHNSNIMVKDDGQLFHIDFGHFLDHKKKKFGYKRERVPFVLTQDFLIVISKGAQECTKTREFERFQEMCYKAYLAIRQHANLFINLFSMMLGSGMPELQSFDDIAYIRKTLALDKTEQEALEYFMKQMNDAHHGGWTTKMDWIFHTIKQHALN
T1 sequence (P27986 whole entry partner): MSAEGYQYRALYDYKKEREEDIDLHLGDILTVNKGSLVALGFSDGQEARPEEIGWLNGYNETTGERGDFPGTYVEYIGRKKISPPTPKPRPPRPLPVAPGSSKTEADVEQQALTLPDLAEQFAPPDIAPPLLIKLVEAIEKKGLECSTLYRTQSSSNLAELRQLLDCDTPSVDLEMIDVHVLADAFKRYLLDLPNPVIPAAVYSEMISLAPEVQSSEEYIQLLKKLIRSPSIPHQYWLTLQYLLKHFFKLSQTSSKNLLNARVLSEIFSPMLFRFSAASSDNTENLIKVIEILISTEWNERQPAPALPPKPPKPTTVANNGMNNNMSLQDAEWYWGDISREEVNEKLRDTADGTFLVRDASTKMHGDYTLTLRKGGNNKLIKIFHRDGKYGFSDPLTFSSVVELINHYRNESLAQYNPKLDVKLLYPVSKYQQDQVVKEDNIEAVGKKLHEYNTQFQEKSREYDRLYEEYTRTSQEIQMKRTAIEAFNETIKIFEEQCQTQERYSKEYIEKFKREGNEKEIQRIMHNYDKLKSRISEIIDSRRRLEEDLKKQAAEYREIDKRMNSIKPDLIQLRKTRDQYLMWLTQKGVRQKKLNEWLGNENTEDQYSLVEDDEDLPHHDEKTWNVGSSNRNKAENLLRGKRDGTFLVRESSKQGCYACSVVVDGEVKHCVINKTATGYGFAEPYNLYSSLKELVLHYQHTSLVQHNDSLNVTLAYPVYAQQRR
Method: Expression and purification of wild-type p110α (Cambridge MRC Laboratory for Molecular Biology (LMB-MRC) plasmid number OP831) in a complex with full-length p85α (LMB-MRC plasmid OP809) was performed as described. The oncogenic mutants G106V (LMB-MRC plasmid JB35), N345K (LMB-MRC plasmid OP661) and E545K (LMB-MRC plasmid OP663) were also purified using this protocol. Briefly, 10 litres of Spodoptera frugiperda (Sf9) cell culture at a density of 1.0 x 10^6 cells/ml were co-infected with a p85α-encoding virus [LMB-MRC plasmid OP809]. and a virus encoding p110α with an N-terminal 6xHis tag followed by a tobacco etch virus (TEV) protease site [LMB-MRC plasmid OP831]. After a 48 h infection at 27°C, cells were harvested and washed with PBS. […]
(§1) For characterisation of the effects of 1938 on in vitro PI3K enzymology, all reactions were performed at room temperature with 384 white-polystyrene plates (Corning #3574). […] Data was expressed as velocity (nmol of ADP generated/nmol of enzyme/sec). […] Luminescence was read using a PHERAstar® plate reader with software version 5.41, and analyses were performed using GraphPad Prism 8/9.

[1] = tested on: p110α-mutants D603K, D603A, 603DCN_AAA605, D603A/F1016S, L1006R, F1016S, L1006R/F1016S; assay: ADP-Glo catalytic activity, mutants in the 1938-binding pocket; format: biochemical, human; conditions: all mutants
Method: Expression and purification of mutants resistant to 1938 were performed as follows. Sf9 insect cells (1.5 L) were cultured in Insect-XPRESS with L-Glutamine medium (Lonza BE12-730Q) at 27°C and co-infected with baculovirus encoding the regulatory p85α-subunit [LMB-MRC plasmid OP809] and the catalytic subunit p110α-D603K [LMB-MRC plasmid OP895], D603A [OP900], 603DCN_AAA605 [OP894], D603A/F1016S [OP901], L1006R [OP897], F1016S [OP898], L1006R/F1016S [OP899] at a density of 1.6 × 10^6 cells/ml. The culture was incubated for 47 h after infection, cells were collected, flash-frozen in liquid N2 and stored at -80°C. For purification, cell pellets were resuspended in 50 ml of lysis buffer (20 mM Tris, 150 mM NaCl, 5% glycerol, 1 mM TCEP, pH 8.0) containing EDTA-free Protease inhibitor tablets (1 tablet per 50 ml of solution), 0.5 mM PEFA and 5 μl of Piece® Universal Nuclease For Cell Lysis. The suspension was sonicated for 3 min on ice, with 10 sec on and 10 sec off. […]
as §1

CCN1CCN(c2ccc(Nc3cc(Nc4cccc5c4N(C(C)=O)CC5)ccn3)cc2)CC1 [Compound 1938]
activation of E545K mutant (PI3Kα E545K mutant): could be further activated by 1938 | activation of 1938-binding pocket p110α-mutants [1]: resistant to activation by 1938
